Test results as given in ChEMBL document CHEMBL5291721, “A preclinical secondary pharmacology resource illuminates target-adverse drug reaction associations of marketed drugs” (Nat Commun, 2023).

Columns and labels:
[1] = target: 5-hydroxytryptamine receptor 2A (Homo sapiens, UniProt P28223)
[2] = target: T1, D(1A) dopamine receptor (Homo sapiens, UniProt P21728)
[3] = target: 5-hydroxytryptamine receptor 2B (Homo sapiens, UniProt P41595)
[4] = target: Beta-3 adrenergic receptor (Homo sapiens, UniProt P13945)
Beta-3 adrenergic receptor, sequence (P13945 whole entry): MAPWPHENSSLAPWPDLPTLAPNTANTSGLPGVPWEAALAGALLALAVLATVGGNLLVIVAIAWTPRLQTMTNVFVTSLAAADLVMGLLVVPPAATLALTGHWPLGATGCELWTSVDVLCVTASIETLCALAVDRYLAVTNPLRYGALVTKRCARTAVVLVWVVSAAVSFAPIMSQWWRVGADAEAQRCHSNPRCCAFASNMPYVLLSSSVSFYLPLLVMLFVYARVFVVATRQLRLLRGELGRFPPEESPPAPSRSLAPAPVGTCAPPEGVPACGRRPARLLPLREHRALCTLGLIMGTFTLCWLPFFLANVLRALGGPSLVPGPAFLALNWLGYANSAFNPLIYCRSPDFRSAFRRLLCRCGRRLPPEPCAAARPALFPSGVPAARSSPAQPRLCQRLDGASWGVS

[5] = target: Glucagon receptor (Homo sapiens, UniProt P47871)
Glucagon receptor, sequence (P47871 whole entry): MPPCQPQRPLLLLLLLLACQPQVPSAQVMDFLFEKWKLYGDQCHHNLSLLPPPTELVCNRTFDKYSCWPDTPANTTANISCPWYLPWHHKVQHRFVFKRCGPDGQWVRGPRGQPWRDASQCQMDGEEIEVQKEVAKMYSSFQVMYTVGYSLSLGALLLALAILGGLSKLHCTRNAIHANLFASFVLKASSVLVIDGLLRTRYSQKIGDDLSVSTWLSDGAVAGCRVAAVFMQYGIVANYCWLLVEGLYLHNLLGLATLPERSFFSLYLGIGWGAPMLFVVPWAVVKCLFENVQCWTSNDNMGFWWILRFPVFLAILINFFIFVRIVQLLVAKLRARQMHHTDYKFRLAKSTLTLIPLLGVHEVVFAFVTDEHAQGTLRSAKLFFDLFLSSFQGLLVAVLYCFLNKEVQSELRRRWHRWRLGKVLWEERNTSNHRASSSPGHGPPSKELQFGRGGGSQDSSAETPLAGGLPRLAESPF

[6] = target: Estrogen receptor beta (Homo sapiens, UniProt Q92731)
Estrogen receptor beta, sequence (Q92731 whole entry): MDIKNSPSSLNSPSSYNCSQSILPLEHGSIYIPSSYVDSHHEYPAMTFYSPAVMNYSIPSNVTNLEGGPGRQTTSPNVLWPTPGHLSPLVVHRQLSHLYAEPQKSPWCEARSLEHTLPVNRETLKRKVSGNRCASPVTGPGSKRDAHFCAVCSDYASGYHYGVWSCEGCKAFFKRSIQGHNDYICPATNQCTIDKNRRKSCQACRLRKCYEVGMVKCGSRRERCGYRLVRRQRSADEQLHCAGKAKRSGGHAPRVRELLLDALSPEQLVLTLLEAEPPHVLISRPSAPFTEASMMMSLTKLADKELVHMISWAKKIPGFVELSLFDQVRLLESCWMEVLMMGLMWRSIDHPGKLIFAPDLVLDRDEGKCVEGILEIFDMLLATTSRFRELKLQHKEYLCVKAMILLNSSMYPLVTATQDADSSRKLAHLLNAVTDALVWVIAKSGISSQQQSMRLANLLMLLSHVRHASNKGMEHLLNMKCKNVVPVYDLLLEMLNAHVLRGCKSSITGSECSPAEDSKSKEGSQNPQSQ

[7] = target: T2, Alpha-2A adrenergic receptor (Homo sapiens, UniProt P08913)
T2 sequence (P08913 whole entry): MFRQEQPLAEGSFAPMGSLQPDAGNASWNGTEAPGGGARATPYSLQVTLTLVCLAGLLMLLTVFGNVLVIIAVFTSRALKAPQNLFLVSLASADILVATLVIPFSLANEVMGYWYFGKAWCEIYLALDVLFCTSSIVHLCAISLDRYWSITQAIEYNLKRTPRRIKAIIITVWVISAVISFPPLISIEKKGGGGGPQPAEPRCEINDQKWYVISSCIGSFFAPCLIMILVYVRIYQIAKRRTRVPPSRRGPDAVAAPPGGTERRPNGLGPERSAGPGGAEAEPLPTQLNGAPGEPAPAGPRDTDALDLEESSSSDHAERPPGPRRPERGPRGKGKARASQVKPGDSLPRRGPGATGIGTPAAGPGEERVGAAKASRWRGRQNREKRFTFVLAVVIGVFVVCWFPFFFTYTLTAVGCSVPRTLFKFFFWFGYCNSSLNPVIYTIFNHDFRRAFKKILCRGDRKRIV

[8] = target: T3, Corticotropin-releasing factor receptor 2 (Homo sapiens, UniProt Q13324)
T3 sequence (Q13324 whole entry): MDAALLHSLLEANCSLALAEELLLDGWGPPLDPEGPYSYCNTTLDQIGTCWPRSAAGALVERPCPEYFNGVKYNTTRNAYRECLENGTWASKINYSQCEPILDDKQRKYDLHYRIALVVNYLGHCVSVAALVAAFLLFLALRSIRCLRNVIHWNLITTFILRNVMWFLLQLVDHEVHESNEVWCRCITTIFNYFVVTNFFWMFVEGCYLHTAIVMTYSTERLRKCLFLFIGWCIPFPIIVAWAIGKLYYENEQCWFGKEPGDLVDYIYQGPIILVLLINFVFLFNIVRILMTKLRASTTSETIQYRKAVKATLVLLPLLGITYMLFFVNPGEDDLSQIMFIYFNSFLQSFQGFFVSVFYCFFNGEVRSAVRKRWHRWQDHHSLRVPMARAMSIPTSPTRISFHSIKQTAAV

[9] = target: T4, Gastric inhibitory polypeptide receptor (Homo sapiens, UniProt P48546)
T4 sequence (P48546 whole entry): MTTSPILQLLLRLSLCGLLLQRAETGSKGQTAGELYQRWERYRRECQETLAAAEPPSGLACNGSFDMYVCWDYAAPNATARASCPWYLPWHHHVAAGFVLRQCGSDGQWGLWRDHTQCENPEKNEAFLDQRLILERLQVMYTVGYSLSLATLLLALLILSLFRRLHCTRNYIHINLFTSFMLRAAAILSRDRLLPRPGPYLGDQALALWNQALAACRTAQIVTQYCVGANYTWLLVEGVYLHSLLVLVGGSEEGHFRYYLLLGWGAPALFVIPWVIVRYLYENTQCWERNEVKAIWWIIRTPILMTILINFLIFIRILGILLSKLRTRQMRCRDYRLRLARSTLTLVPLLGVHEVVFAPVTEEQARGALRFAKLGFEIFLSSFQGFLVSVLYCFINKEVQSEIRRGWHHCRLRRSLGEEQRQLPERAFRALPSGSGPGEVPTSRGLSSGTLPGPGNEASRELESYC

[10] = target: Neurotensin receptor type 1 (Homo sapiens, UniProt P30989)
Neurotensin receptor type 1, sequence (P30989 whole entry): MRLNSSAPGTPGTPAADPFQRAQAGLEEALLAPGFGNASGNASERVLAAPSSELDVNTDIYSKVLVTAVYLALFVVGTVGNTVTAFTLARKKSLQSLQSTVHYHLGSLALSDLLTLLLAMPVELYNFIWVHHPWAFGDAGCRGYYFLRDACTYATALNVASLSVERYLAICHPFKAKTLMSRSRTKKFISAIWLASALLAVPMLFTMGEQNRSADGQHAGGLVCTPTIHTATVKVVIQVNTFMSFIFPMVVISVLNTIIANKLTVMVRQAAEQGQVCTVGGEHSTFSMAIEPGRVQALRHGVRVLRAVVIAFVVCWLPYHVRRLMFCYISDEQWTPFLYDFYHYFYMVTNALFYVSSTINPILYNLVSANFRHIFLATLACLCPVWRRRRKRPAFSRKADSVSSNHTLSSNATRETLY

[11] = target: T5, Neuropeptide Y receptor type 2 (Homo sapiens, UniProt P49146)
T5 sequence (P49146 whole entry): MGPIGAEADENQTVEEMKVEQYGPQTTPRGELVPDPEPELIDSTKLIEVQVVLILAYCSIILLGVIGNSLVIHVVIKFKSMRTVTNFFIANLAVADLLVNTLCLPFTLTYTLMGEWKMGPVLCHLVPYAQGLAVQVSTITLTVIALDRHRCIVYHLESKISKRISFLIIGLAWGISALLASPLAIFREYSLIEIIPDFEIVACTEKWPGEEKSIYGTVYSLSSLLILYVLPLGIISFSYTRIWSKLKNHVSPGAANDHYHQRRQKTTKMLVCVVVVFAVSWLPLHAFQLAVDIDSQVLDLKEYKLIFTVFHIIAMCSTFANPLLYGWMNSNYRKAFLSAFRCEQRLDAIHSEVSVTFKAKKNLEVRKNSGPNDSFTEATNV

[12] = target: T1, D(1A) dopamine receptor; remark: listed apart in the source
Note: assay procedure not described here.

5-hydroxytryptamine receptor 2A, sequence (P28223 whole entry): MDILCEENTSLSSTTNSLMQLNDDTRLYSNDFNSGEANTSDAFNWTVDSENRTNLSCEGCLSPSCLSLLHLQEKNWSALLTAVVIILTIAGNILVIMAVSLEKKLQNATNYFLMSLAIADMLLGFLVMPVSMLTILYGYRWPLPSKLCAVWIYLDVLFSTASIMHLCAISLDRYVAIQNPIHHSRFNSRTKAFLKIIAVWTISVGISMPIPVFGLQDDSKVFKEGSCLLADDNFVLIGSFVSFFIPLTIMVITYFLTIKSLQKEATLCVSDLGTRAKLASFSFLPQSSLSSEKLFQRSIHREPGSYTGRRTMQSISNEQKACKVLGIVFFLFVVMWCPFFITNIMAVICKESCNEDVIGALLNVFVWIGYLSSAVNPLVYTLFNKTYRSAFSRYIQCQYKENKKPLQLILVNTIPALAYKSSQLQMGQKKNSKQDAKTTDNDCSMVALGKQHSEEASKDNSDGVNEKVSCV
T1 sequence (P21728 whole entry): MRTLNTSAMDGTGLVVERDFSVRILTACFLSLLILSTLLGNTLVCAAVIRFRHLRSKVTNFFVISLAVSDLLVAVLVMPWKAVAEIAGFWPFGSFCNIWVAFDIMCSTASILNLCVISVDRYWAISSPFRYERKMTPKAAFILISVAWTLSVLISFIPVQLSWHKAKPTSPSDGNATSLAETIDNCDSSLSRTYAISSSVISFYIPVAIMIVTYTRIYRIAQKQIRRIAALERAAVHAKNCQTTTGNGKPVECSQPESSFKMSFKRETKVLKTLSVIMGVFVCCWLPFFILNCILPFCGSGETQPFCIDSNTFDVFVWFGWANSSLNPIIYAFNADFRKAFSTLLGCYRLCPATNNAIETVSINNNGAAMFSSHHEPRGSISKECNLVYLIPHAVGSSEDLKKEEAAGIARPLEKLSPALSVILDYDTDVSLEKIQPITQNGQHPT
5-hydroxytryptamine receptor 2B, sequence (P41595 whole entry): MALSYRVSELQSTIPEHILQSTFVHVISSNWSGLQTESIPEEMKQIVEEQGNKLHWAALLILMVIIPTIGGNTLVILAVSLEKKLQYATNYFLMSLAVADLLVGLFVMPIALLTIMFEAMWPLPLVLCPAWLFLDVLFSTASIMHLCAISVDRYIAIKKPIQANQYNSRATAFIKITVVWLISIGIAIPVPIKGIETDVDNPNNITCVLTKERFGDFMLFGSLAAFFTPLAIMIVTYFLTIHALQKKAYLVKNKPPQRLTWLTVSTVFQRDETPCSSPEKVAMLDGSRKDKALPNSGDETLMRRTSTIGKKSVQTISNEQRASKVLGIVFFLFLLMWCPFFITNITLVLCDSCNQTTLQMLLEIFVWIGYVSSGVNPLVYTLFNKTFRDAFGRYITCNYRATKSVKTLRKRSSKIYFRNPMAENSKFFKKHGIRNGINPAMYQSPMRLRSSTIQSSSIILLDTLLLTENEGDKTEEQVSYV

SMILES	AC50 [1] [µM]	AC50 [2] [µM]	AC50 [3] [µM]	AC50 [4] [µM]	AC50 [5] [µM]	AC50 [6] [µM]	AC50 [7] [µM]	AC50 [8] [µM]	AC50 [9] [µM]	AC50 [10] [µM]	AC50 [11] [µM]	AC50 [12] [µM]
C[C@]12CC[C@H](O)CC1=CC[C@@H]1[C@@H]2CC[C@]2(C)C(c3cccnc3)=CC[C@@H]12 [ABIRATERONE]	> 10	–	–	–	–	–	–	–	–	–	–	–
CCn1cc(C(=O)O)c(=O)c2cc(F)c(N3CCNCC3)nc21 [ENOXACIN]	–	> 10	> 10	> 30	> 30	> 30	> 10	> 30	> 30	> 30	> 30	–
CC(=O)OCC[N+](C)(C)C [ACETYLCHOLINE]	> 10	> 10	> 10	> 30	> 30	> 30	> 10	> 30	> 30	> 30	> 30	–
Oc1c(I)cc(Cl)c2cccnc12 [CLIOQUINOL]	–	–	–	–	–	–	–	–	–	–	–	> 30
COCCCOc1ccnc(C[S+]([O-])c2nc3ccccc3[nH]2)c1C (stereo not drawn) [RABEPRAZOLE]	–	> 10	> 10	> 30	> 30	> 30	> 10	> 30	> 30	> 30	> 30	–
C[C@]1(COc2ccc(N3CCC(Oc4ccc(OC(F)(F)F)cc4)CC3)cc2)Cn2cc([N+](=O)[O-])nc2O1	> 10	> 10	> 10	> 30	> 30	> 30	> 10	> 30	> 30	> 30	> 30	–
COc1ccc2c(c1)[C@]13CCCC[C@@H]1[C@H](C2)N(C)CC3 [DEXTROMETHORPHAN]	–	> 10	5.8	> 30	> 30	> 30	11.2	> 30	> 30	> 30	> 30	–
CCCCCCCC(=O)N[C@H](CN1CCCC1)[C@H](O)c1ccc2c(c1)OCCO2	–	–	–	–	–	–	–	–	–	–	–	> 30
O=C(CCCN1CCC2(CC1)C(=O)NCN2c1ccccc1)c1ccc(F)cc1 [SPIPERONE]	–	–	0.66	–	–	–	–	–	–	–	–	–
O=C(Nc1nc(-c2cc(Cl)cs2)c(N2CCN(C3CCCCC3)CC2)s1)c1cnc(N2CCC(C(=O)O)CC2)c(Cl)c1 [AVATROMBOPAG]	> 10	> 10	> 10	–	–	–	> 10	–	–	> 10	> 10	> 30
C1CNCCN1 [PIPERAZINE]	–	–	–	–	–	–	–	–	–	–	–	> 30
OCCN1CCN(CC/C=C2/c3ccccc3Sc3ccc(Cl)cc32)CC1 [ZUCLOPENTHIXOL]	0.0046	–	0.0144	–	–	–	7.34	–	–	–	–	–
CCC(=O)O[C@@H]1CC(=O)O[C@H](C)C/C=C/C=C/[C@H](OC(C)=O)[C@H](C)C[C@H](CC=O)[C@H](O[C@@H]2O[C@H](C)[C@@H](O[C@H]3C[C@@](C)(OC(C)=O)[C@@H](OC(=O)CC)[C@H](C)O3)[C@H](N(C)C)[C@H]2O)[C@H]1OC [MIOCAMYCIN]	–	–	–	–	–	–	–	–	–	–	–	> 30
CO[C@@]1(NC(=O)CSCC#N)C(=O)N2C(C(=O)O)=C(CSc3nnnn3C)CS[C@@H]21 [CEFMETAZOLE]	–	–	–	–	–	–	–	–	–	–	–	> 30
C[C@H]1C[C@H]2[C@@H]3CCC4=CC(=O)C=C[C@]4(C)[C@@]3(Cl)[C@@H](O)C[C@]2(C)[C@@]1(O)C(=O)CO [BECLOMETHASONE]	–	> 10	> 10	> 30	> 30	–	> 10	> 30	> 30	> 30	> 30	–
